Results published in patent publication US10730857B2, “Benzocyanine compounds” (Pierce Biotechnology, Inc., priority 2011, dated 2020).
Blank lines part the entries; values can stand above or below the compound they belong to.

How the values were obtained:
[1] = Absorbance/emission spectral properties and fluorescence intensity of the dyes; type: physicochemical
Description: Emission/excitation profiles for inventive and commercial compounds was determined by reconstituting the compounds in DMF at 10 mg/ml and then diluting in PBS buffer pH 7.2 to 10 μg/ml.

[2] = tested on: rabbit IgG immunoglobulin; assay: Plate functional assay of dye-GAR conjugates; type: binding
Description: Performance of the dye-GAM conjugates, dye-GAR conjugates, and dye-SA conjugates was evaluated in a functional assay. Wells of a 96 white opaque plate or black clear-bottom plate were coated with target proteins mouse IgG immunoglobulin, rabbit IgG immunoglobulin, or biotinylated bovine serum albumin (BBSA). One hundred μl mouse or rabbit IgG, or BBSA at a concentration of 10 μg/ml was applied to the corresponding wells in columns 1 and 2. The target proteins were serially diluted 1:1 from the wells in columns 2 to 11 using 100 μl PBS. One hundred μl of the samples from the wells in column 11 were discarded. One hundred μl PBS was added to the wells in column 12. The plates were incubated overnight at 4° C. and then blocked 2×200 μl with Thermo Scientific SuperBlock® Blocking Buffer. The coated plates were washed 2×200 μl with PBS-Tween and 1×200 μl with PBS. Based on the calculated concentrations, conjugates were diluted 1:250 in PBS, added to the corresponding plates (100 μl/well) and then incubated for one hour in the dark. The plates were washed with 2×200 μl with PBS-Tween and 1×200 μl with PBS and filled with PBS buffer (100 μl/well) prior to scanning the white opaque plates on Tecan Safire using 679 nmexcitation/702 nmemission or scanning the black clear-bottom plates on LiCor Odyssey at 700 channel, to detect fluorescence intensity.

[3] = tested on: lamin A in U20S cells; assay: Immunofluorescence detection of lamin A in U20S cells (FIG. 20A-C and repeat); type: cell-based
Description: In the indicated experiments, the inventive compounds and commercial dye were evaluated for immunofluorescence in a cell based assay using the following protocol. Frozen U20S cell plates which were stored at −80° C. were thawed for 45 minutes at 50° C. Storage buffer (PBS) was removed and the cells were permeabilized for 15 minutes with 0.1% Triton-X100 in 1×PBS buffer (100 μl/well). The cell plate was blocked for 60 minutes in 2% BSA/PBS-0.1% Triton-X100. Primary antibody, either rat anti-Grp94 (5 μg/ml), mouse anti-lamin A (10 μg/ml), or rabbit anti-lamin B1 (10 μg/ml), diluted in 2% BSA/PBS-0.1% Triton-X100 was added to the plate and incubated for 1 hour at room temperature. Control wells contained only 2% BSA/PBS-0.1% Triton-X100 blocker. After incubation, the antibody solution was removed from the plate and the plate was washed three times with 100 μl/well of PBS-0.5% Tween-20 and one time with 100 μl/well PBS. GARat, GAM, or GAR secondary antibodies labeled with various molar excess of the inventive or commercial compound were diluted to 4 μg/ml in PBS and incubated for 1 hour at room temperature. The plates were washed three times with 100 μl/well of PBST and once with 100 μl/well PBS, and Hoechst (diluted to 0.1 μg/ml in PBS) was added to each well (100 μl/well). The plates were scanned on ArrayScan Plate Reader or ToxInsight Instrument.

[4] = In vivo imaging with dye-labeled anti-CEA antibody; set-up: species or system nu/nu mice; conditions: dye conjugated to mouse anti-CEA antibody; i.v.; predicted results
Description: The inventive compounds are used for in vivo imaging as described in J. Gastrointest Surg (2008) 12:1938-1950. Briefly, human pancreatic cell lines are maintained in media supplemented with penicillin/streptomycin at 37° C. with 5% CO2. Mouse anti-CEA antibody and Control Mouse IgG (in PBS with 0.20% sodium azide) are conjugated to V08-15173. The dye is reconstituted at 10 mg/ml in DMF and then added to the antibody at a 10 molar excess. The reaction is carried out for one hour at room temperature. The samples are then dialyzed against 3×2 L of PBS. The cell lines are plated in 96-well plates at 5×10^4 cells per well. After 48 hours culture in appropriate media, the cells are incubated with 1 μg of V08-15173 labeled anti-CEA antibody or V08-15173-labeled control mouse IgG for four hours at 37° C. The cells are then washed three times with PBS and then imaged with an inverted Nikon De-485 microscope and Spot camera RD.
Surgical procedures and intravital imaging are performed with the animals anesthesized by intramuscular injection of 0.02 ml of 50% ketamine, 38% xylazine and 12 acepromazine maleate. Human pancreatic and colorectal cancer cell lines are harvested by trypsinization and washed twice with serum free medium […]. Cells (1×10^6 in 100 μl of serum-free media) are injected subcutaneously within 30 minutes of harvesting over the right flank in female nu/nu mice between 4-6 weeks of age. Subcutaneous tumors are allowed to grow for 7-14 days until they reached diameter of 1-2 mm prior to the delivery of conjugated antibody. For ASPC-1 implants, the cells are harvested by trypsinization and washed 3× in serum-free media. […]. The cells are resuspended in serum-free media at 5×10^6/ml. A volume of 200 μl of the cell suspension is then injected directly into the peritoneal cavity within 30 minutes of harvesting.
For antibody delivery, one to two weeks after subcutaneous, orthotopic, or intraperitoneal tumor implantation, animals are given intravenous (i.v.) injection of either conjugated anti-CEA or conjugated control IgG antibody diluted in PBS to a final volume of 100 μl. All i.v. injections are done via the tail vein. For the dose-response experiment, the antibody dose is 75 μg. For the in vivo time course, the animals are anesthesized and imaged at 30 min, 1, 2, 6, 24 hours and 8 and 15 days after systemic antibody delivery.
The inventive compounds are used for in vivo imaging as described in J. Gastrointest Surg (2008) 12:1938-1950. Briefly, human pancreatic cell lines are maintained in media supplemented with penicillin/streptomycin at 37° C. with 5% CO2. Mouse anti-CEA antibody and Control Mouse IgG (in PBS with 0.20% sodium azide) are conjugated to 779 Compound 1. […]

[5] = tested on: lamin A in U20S cells; assay: Immunofluorescence, mouse anti-lamin A, U20S cells (FIG. 16); type: cell-based; conditions: FIG. 16
Description: The inventive compounds and commercial dye were evaluated for immunofluorescence in a second cell based assay using the following protocol. Frozen U20S cell plates stored at −20° C. were placed overnight at 4° C. Storage buffer (PBS) was removed and the cells were permeabilized for 15 min (100 μl/well) with 0.1% Triton-X100 in 1×PBS buffer. Plates were blocked for 30 min in 2% BSA in 1×PBS-0.1% Trion-X100. Primary antibodies diluted in 2% BSA in 1×PBS-0.1% Trion-X100 were added to the plates (column 1-11; column 12 included only blocker) and incubated five hours at room temperature. Mouse anti-lamin A was added at 2 μg/ml and rabbit anti-lamin B1 was added at 4 μg/ml. After incubation, the antibody solution was removed from the plates and the plates were washed PBS-0.5% Tween-20 (2×100 μl/well). Next, GAM and GAR secondary antibodies labeled with DyLight 680-NHS, DyLight 680B-NHS, 679 Compound 1-NHS, and Cy5.5 Mono Ester were diluted to 4 μg/ml in PBS and incubated with the cells for one hour at room temperature. GAM and GAR conjugated to DyLight 680-NHS, DyLight 680B-NHS, 679 Compound 1-NHS, and Company B Compound at 10× molar excess were diluted to 4 μg/ml in PBS and then serially diluted 1:1 in the plate to the following concentrations: 2 μg/ml, 1 μg/ml, 0.5 μg/ml, 0.25 μg/ml, 0.125 μg/ml and/or 0.0625 μg/ml. The plates were washed 3× with 100 μl/well PBS, and Hoechst stain diluted to 0.1 μg/ml in PBS was added to each well (100 μl/well). The plates were scanned on ArrayScan Plate Reader for imaging and quantitation.

[6] = first property table of Example 6, NHS/mono ester forms
[7] = second property table of Example 6, NHS ester forms

Compound: 2-{(1E,3E)-5-[3-(5-Carboxypentyl)-1,1-dimethyl-6,8-disulfo-1,3-dihydro-benzo[e]indol-(2E)-ylidene]-penta-1,3-dienyl}-3-(2-methoxy-ethyl)-1-methyl-6,8-disulfo-1-(3-sulfopropyl)-1H-benzo[e]indolium [679 Compound 1/1 (isomer 2)]
UV-vis λmax ([1]; PBS): 679 nm | λem ([1]; PBS): 698 nm

Compound: COCC[N+]1=C(/C=C/C=C/C=C2/N(CCCCCC(=O)O)c3ccc4c(S(=O)(=O)[O-])cc(S(=O)(=O)[O-])cc4c3C2(C)C)C(C)(CCCS(=O)(=O)[O-])c2c1ccc1c(S(=O)(=O)[O-])cc(S(=O)(=O)[O-])cc21.[Na+].[Na+].[Na+].[Na+] (single isomer, unassigned; isomer 1) [679 Compound 1/1 (isomer 1), 2-{(1E,3E)-5-[3-(5-Carboxypentyl)-1,1-dimethyl-6,8-disulfo-1,3-dihydro-benzo[e]indol-(2E)-ylidene]-penta-1,3-dienyl}-3-(2-methoxy-ethyl)-1-methyl-6,8-disulfo-1-(3-sulfopropyl)-1H-benzo[e]indolium]
UV-vis λmax ([1]; PBS): 679 nm

Em [1, 6]: 698 nm | Ex [1, 6]: 679 nm | Em [1, 7]: 698 nm | Ex [1, 7]: 679 nm
Compound: COCC[N+]1=C(/C=C/C=C/C=C2/N(CCCCCC(=O)ON3C(=O)CCC3=O)c3ccc4c(S(=O)(=O)[O-])cc(S(=O)(=O)O)cc4c3C2(C)C)C(C)(CCCS(=O)(=O)O)c2c1ccc1c(S(=O)(=O)O)cc(S(=O)(=O)O)cc21 (centres unmarked) [679 Compound 1-NHS]

Compound: COCC[N+]1=C(/C=C/C=C/C=C2/N(CCCCCC(=O)O)c3ccc4c(S(=O)(=O)[O-])cc(S(=O)(=O)[O-])cc4c3C2(C)C)C(C)(CCCS(=O)(=O)[O-])c2c1ccc1c(S(=O)(=O)[O-])cc(S(=O)(=O)[O-])cc21.[Na+].[Na+].[Na+].[Na+] (centres unmarked) [679 Compound 1/1, 2-{(1E,3E)-5-[3-(5-Carboxypentyl)-1,1-dimethyl-6,8-disulfo-1,3-dihydro-benzo[e]indol-(2E)-ylidene]-penta-1,3-dienyl}-3-(2-methoxy-ethyl)-1-methyl-6,8-disulfo-1-(3-sulfopropyl)-1H-benzo[e]indolium]
quenching at 1000 ng/well at 25× (in words) ([2]; FIG. 14 summary Raw Fluorescence Intensity): apparent quenching | Raw Fluorescence Intensity behaviour at 25× molar excess (in words) ([2]; LiCOR Odyssey, FIG. 12): saturating at 25× | Mean Total Intensity, Average, 2.5 X ([3]; GAM conjugate 4 μg/ml, 2.5 X molar excess): 29229 | Mean Total Intensity, Average, 5.0 X ([3]; GAM conjugate 4 μg/ml, 5.0 X molar excess): 49279 | Mean Total Intensity, Average, 7.5 X ([3]; GAM conjugate 4 μg/ml, 7.5 X molar excess): 28782 | Mean Total Intensity, Average, 10 X ([3]; GAM conjugate 4 μg/ml, 10 X molar excess): 30098 | Mean Total Intensity, Average, 15 X ([3]; GAM conjugate 4 μg/ml, 15 X molar excess): 48071 | Mean Total Intensity, Negative control, 2.5 X ([3]; repeat experiment, no primary antibody, 2.5 X): 8711 | Mean Total Intensity, Negative control, 5 X ([3]; repeat experiment, no primary antibody, 5 X): 8674 | Mean Total Intensity, Negative control, 10 X ([3]; repeat experiment, no primary antibody, 10 X): 20481 | Mean Total Intensity, Negative control, 15 X ([3]; repeat experiment, no primary antibody, 15 X): 16277

Compound: COCC[N+]1=C(/C=C/C=C/C=C/C=C2/N(CCCCCC(=O)O)c3ccc4c(S(=O)(=O)[O-])cc(S(=O)(=O)O)cc4c3C2(C)C)C(C)(CCCS(=O)(=O)O)c2c1ccc1c(S(=O)(=O)O)cc(S(=O)(=O)O)cc21 (centres unmarked) [779 Compound 1, 6-((E)-2-((2E,4E,6E)-7-(3-(2-methoxyethyl)-1-methyl-6,8-disulfonato-1-(3-sulfonatopropyl)-1H-benzo[e]indol-3-ium-2-yl)hepta-2,4,6-trien-1-ylidene)-1,1-dimethyl-6,8-disulfonato-1H-benzo[e]indol-3(2H)-yl)hexanoate]
Ex vivo analysis of the vital organs [4]: presence of dye predominantly in the liver with some signal detected in the spleen intestines and lungs | post-experiment surgical exposure: accumulation of dye [4]: accumulation of dye in the liver, bladder, and a region of inflammation in the subcutaneous tissue

Compound: Cy5.5 [reference compound]
Mean Total Intensity 2X ([5]; GAM conjugated at 2X molar excess): 211945 | Mean Total Intensity 3X ([5]; GAM conjugated at 3X molar excess): 342208 | Mean Total Intensity 4X ([5]; GAM conjugated at 4X molar excess): 451111
